# PubChem BioAssay AID489024 (Sanford-Burnham Center for Chemical Genomics, 2010)
# Activity calls are given as the source filed them.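 How the source made its calls: active means compounds whose mean EC50, the dose giving half the maximal reporter activation, is at or below a set limit; inactive means the rest.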
# Target: CHO-CHOP luciferase reporter, UPR activation, luminescence
# Test: CHOP reporter induction, apoptotic UPR branch – CHO-CHOP cells, luciferase luminescence, confirmation (AID 489024);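 further: compounds added alone to reporter cells with no tunicamycin stress co-treatment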
row,SMILES,EC50
1,Cc1cc(C)nc(SCc2ccc(C(=O)N/N=C/c3cccc(O)c3O)cc2)n1,10.1 µM
2,O=C1NC(=O)N(Cc2ccccc2)C(=O)/C1=C\C=C\c1ccco1,> 80 µM (inactive)
3,CC(=O)c1ccc(NC(=O)COC(=O)c2ccccc2N=Nc2ccc(N(C)C)cc2)cc1,> 80 µM (inactive)
4,C/C(=N/NC(=O)c1ccc(C(C)(C)C)cc1)c1ccccn1,2.88 µM
5,Cc1ccc(Nc2nc(-c3ccc(O)c(O)c3)cs2)nc1,1.56 µM
6,CCc1cc2c(=O)[nH]c(-c3ccccn3)nc2s1,2.61 µM
7,O=C(CCl)Nc1ccc(-c2ccccc2)cc1,> 80 µM (inactive)
8,COc1ccc(OC)c(Nc2nc(-c3ccc(O)c(O)c3)cs2)c1,1.55 µM
9,Oc1ccc(/C=N/Nc2cc(N3CCOCC3)nc(N3CCOCC3)n2)cc1O,> 80 µM (inactive)
10,Nc1cccc(-c2nc3cc(S(=O)(=O)c4ccc5oc(-c6cccc(N)c6)nc5c4)ccc3o2)c1,inactive
11,O=C(NCc1cccnc1)/C(=C\c1ccc(-c2ccc(Br)cc2)o1)S(=O)(=O)c1ccccc1,6.67 µM
12,Oc1[nH]c2ccc(Br)cc2c1N=NC(=S)N1CCOCC1,4.28 µM
13,O=C(N/N=C/c1ccc(O)c(O)c1)NC12CC3CC(CC(C3)C1)C2,3.34 µM
14,CC[C@@H](C)[C@H](NC(=O)OC(C)(C)C)c1nnc(S(=O)(=O)Cc2cc(C)ccc2C)o1,15.5 µM
15,O=C1C=CC(=O)N1c1ccc(N2CCCCC2)cc1,> 80 µM (inactive)
16,Oc1ccc(CN2CCN(Cc3ccccc3)CC2)c2cccnc12,inactive
17,CCc1nc(N=Nc2c(O)[nH]c3ccccc23)c2c3c(sc2n1)CCC3,13.7 µM
18,Cc1cc(-n2c(C)cc(C(=O)CCl)c2C)no1,7.75 µM
19,Cc1nn(Cc2c(Cl)cccc2Cl)c(C)c1NC(=O)c1sc2ccccc2c1Cl,inactive
20,COCCN1CSC(=S)N(Cc2ccco2)C1,> 80 µM (inactive)
21,CCCCCCCCCn1c2c(c(=N)c3c1CCC3)CCCC2,11.3 µM
22,O=C(/C=C/Sc1ccccc1)c1ccccc1,6.98 µM
23,CC(C)(C)C(=O)OCc1nc(-c2ccc(O)c(O)c2)cs1,1.38 µM
24,CCN(CC)c1ccc(/C=C2\C(=O)N(c3nnc(C)c(=O)[nH]3)N=C2C)cc1,inactive
25,O=C(Nc1ccc(O)c2c(=O)cc(-c3cccc(Cl)c3)oc12)c1ccccc1Cl,inactive
26,CN1C(=O)/C(=C/c2cccn2-c2ccc3ccccc3c2)C(=O)NC1=S,11.7 µM
27,C=CCn1c(O)c(N=NC(=S)Nc2ccccc2F)c2cc(S(=O)(=O)N3CCOCC3)ccc21,7.34 µM

row,SMILES,EC50
1,Cc1ccc(-c2nn(-c3ccccc3)cc2C=C2C(=O)CC(C)(C)CC2=O)cc1,13.2 µM
2,O=C(CSc1nc2ccc(Nc3nc(N4CCOCC4)nc(N4CCOCC4)n3)cc2s1)Nc1ccccc1F,14.7 µM
3,O=C(CN(c1cccc(C(F)(F)F)c1)S(=O)(=O)c1ccc(Cl)c([N+](=O)[O-])c1)NCc1ccc(F)cc1,11.7 µM
4,COC(=O)c1cc(=O)n(CCc2ccc(OC)c(OC)c2)c(=Nc2ccc(F)c(Cl)c2)s1,16.9 µM
5,CC1(C)CC(=O)C(=Cc2cn(-c3ccccc3)nc2-c2ccc(Cl)cc2)C(=O)C1,6.07 µM
6,Cc1ccc(NC(=O)c2ccc([N+](=O)[O-])o2)cc1S(=O)(=O)N1CCOCC1,11.8 µM
7,O=C(Cn1ncc(Cl)c(Cl)c1=O)c1ccc2c(c1)OCCO2,13.4 µM
8,Cc1c(C#N)c(NC(=O)CCl)n(Cc2ccc(F)cc2)c1C,16 µM
9,CCCCn1c(/C=N/Nc2nc3ccccc3[nH]2)nc2ccccc21,12.3 µM
10,Cc1ccnc(Nc2nc(-c3ccc(O)c(O)c3)cs2)c1,1.34 µM
11,Cc1nc([N+](=O)[O-])c(Br)n1CC(=O)c1ccc2ccccc2c1,> 80 µM (inactive)
12,COc1ccc(CCNC(=O)c2coc(=O)c(Br)c2)cc1,7.26 µM
13,COc1ccc2[nH]cc(C(=O)CCl)c2c1,> 80 µM (inactive)
14,O=C(/C=C/c1ccc(O)c(O)c1)c1ccccc1O,4.64 µM
15,CC1=CC(=O)C(C(C)C)=C/C1=N/OC(=O)c1cccc([N+](=O)[O-])c1,> 80 µM (inactive)
16,O=[N+]([O-])c1ccc2nc(Cl)nc(-c3ccccc3)c2c1,12.5 µM
17,COc1cccc2sc(Nc3nc(C)c(C(C)=O)s3)nc12,14.7 µM
18,O=C(NCCc1ccccc1)c1coc(=O)c(Br)c1,7.83 µM
19,Cc1nc2ccccc2n1-c1nc(-c2ccco2)cc(C(F)(F)F)n1,6.76 µM
20,O=C(c1cccs1)N(C(=O)c1cccs1)c1ccc(Br)cn1,13.9 µM
21,Oc1ccc(-c2cn3ccccc3n2)cc1O,inactive
22,COc1cc(SC#N)ccc1N=Cc1c(C)[nH]n(-c2ccc(C)c(C)c2)c1=O,12.8 µM
23,O=Cc1ccc(O)c2ncccc12,10.3 µM
24,COc1ccc(C(=O)Cn2c(C(=O)/C=C/c3ccccc3)nc3ccccc32)cc1,10.1 µM
25,CCOC(=O)C1=C(CCl)NC(=O)NC1c1ccc2c(c1)OCO2 (stereo not drawn),> 80 µM (inactive)
26,Cc1ccc2nc(-c3ccc(NC(=S)NC4CC(C)(C)NC(C)(C)C4)cc3)sc2c1,6.95 µM
